Test results from patent US8119695B2, “Compounds and methods for treating breast cancer and other diseases” (City of Hope, priority 2003, dated 2012).
Values belong to the compound of their own block, whether it stands above or below them.

Tests used:
Type in all cases: cell-based
ERβ (ERb) = target: T1, ERβ (ERb) (Homo sapiens, UniProt Q92731); experiment: ERE-TK-luc reporter with ERb, E2 100 nM; conditions: Table 6, None 2.88
T1 construct: expressed in transfected cells

ERRα (GAL-ERRa) = experiment: MH100x4 luciferase reporter with GAL-ERRa; design: Reporter Activity: unit not given here
From the text: (§1) MH100x4 is a luciferase reporter with four copies of a GAL4 […] response element. GAL-L refers to the ligand-binding domain of the indicated receptor fused to the C-terminus of the GAL4 DNA binding domain.

ERE-TK-luc = ERE-TK-luc reporter without receptor, E2 100 nM; conditions: Table 6; for Fold Activation: None 1.00; for Reporter Activity: None 1.44
ERRβ (GAL-L-ERRb) = target: T2, ERRβ (GAL-L-ERRb) (Homo sapiens, UniProt O95718); experiment: MH100x4 luciferase reporter with GAL-L-ERRb; design: Reporter Activity: unit not given here
T2 construct: expressed in transfected cells
T2 sequence (O95718 208-432 limits assumed): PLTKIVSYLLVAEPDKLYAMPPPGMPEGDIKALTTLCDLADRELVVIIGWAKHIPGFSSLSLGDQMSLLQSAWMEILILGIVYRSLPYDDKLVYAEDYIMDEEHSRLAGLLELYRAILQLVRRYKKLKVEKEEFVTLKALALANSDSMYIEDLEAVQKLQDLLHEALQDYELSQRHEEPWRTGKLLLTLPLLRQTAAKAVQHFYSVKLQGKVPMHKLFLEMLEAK
From the text: as §1

ERRγ (GAL-ERRg) = experiment: MH100x4 luciferase reporter with GAL-ERRg; design: Reporter Activity: unit not given here; conditions: for Fold Activation / Reporter Activity: Table 3, dose 2.5 (unit not given); for Fold Activation: None 1; for Reporter Activity: None 2.2
From the text: as §1

ERα (ERa) = target: T3, ERα (ERa) (Homo sapiens, UniProt P03372); experiment: ERE-TK-luc reporter with ERa, E2 100 nM; conditions: Table 6, None 3.43
T3 construct: expressed in transfected cells
T3 sequence (P03372 1-595): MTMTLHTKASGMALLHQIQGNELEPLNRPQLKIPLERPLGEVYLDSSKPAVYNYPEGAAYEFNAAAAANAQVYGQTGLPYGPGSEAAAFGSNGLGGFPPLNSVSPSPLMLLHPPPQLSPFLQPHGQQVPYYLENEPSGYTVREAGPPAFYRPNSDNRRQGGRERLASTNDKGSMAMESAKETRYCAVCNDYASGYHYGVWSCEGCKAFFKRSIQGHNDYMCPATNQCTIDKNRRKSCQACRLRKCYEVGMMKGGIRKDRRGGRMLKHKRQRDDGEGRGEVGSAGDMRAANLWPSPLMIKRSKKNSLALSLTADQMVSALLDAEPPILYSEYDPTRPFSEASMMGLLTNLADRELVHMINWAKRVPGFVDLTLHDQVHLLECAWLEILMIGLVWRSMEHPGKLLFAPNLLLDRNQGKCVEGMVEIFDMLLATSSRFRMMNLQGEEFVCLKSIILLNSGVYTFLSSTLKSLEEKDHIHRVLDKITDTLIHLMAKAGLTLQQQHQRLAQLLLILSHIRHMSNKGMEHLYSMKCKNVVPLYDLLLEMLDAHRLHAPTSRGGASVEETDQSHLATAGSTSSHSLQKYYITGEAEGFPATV

MH100x4 = MH100x4 luciferase reporter without receptor; conditions: Table 3, dose 2.5 (unit not given); for Reporter Activity: None 0.57; for Fold Activation: None 1
From the text: as §1

ERRs = experiment: repression / antagonism of ERRs; conditions: result in words
[1] = E2 100 nM + DY 40, head 0 μM (1st)
[2] = E2 100 nM + DY 40, head 0 μM (2nd)
[3] = Table 3, dose 2.5 (unit not given), None 1
[4] = Table 3, dose 2.5 (unit not given), None 8.18
[5] = Table 3, dose 2.5 (unit not given), None 2.38

T1 sequence (Q92731 whole entry, species assumed): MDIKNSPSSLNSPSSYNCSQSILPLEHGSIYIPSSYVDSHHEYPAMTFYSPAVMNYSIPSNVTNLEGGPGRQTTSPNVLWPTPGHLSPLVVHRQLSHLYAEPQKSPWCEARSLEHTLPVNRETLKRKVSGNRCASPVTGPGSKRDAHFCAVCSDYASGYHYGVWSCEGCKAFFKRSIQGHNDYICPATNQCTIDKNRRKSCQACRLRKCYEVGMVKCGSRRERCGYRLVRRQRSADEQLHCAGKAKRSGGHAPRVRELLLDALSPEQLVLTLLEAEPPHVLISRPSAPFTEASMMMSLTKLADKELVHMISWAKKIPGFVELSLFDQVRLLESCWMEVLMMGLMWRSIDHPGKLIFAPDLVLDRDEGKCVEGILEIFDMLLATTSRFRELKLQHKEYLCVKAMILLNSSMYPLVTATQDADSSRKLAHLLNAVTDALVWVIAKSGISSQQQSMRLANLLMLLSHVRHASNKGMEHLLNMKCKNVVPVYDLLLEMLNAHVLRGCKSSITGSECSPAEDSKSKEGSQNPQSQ

Structure (SMILES): CC(=O)Oc1ccc(/C(=C(/c2ccccc2)C(C)C)c2ccc(OCCN(C)C)cc2)cc1 [DY40, (E,Z)-4-{1-[4-(2-dimethylamino-ethoxy)-phenyl]-3-methyl-2-phenyl-but-1-enyl}-phenyl acetate]
- Reporter Activity (ERβ (ERb); E2 100 nM + DY 40 0.01 μM): 3.19
- Reporter Activity (ERβ (ERb); E2 100 nM + DY 40 0.03 μM): 2.36
- Reporter Activity (ERβ (ERb); E2 100 nM + DY 40 0.1 μM): 1.58
- Reporter Activity (ERβ (ERb); E2 100 nM + DY 40 0.3 μM): 1.09
- Reporter Activity (ERβ (ERb); [1]): 9.37
- Reporter Activity (ERβ (ERb); [2]): 6.03
- Fold Activation (ERRα (GAL-ERRa); Table 4, DY40 dose head 0 (1st of 3), None 1.23): 1.24
- Reporter Activity (ERRα (GAL-ERRa); Table 4, DY40 dose head 0 (1st of 3), None 34.05): 34.34
- Fold Activation (ERRα (GAL-ERRa); Table 4, DY40 dose head 0 (2nd of 3), None 1.23): 1.17
- Reporter Activity (ERRα (GAL-ERRa); Table 4, DY40 dose head 0 (2nd of 3), None 34.05): 32.4
- Fold Activation (ERRα (GAL-ERRa); Table 4, DY40 dose head 0 (3rd of 3), None 1.23): 1.23
- Reporter Activity (ERRα (GAL-ERRa); Table 4, DY40 dose head 0 (3rd of 3), None 34.05): 34
- Fold Activation (ERRα (GAL-ERRa); Table 4, dose 0.1 (unit not given), None 1/1.23): 1.3
- Reporter Activity (ERRα (GAL-ERRa); Table 4, dose 0.1 (unit not given), None 27.7/34.05): 37
- Fold Activation (ERRα (GAL-ERRa); Table 4, dose 0.3 (unit not given), None 1/1.23): 1.47
- Reporter Activity (ERRα (GAL-ERRa); Table 4, dose 0.3 (unit not given), None 27.7/34.05): 40.8
- Fold Activation (ERRα (GAL-ERRa); Table 4, dose 1 (unit not given), None 1/1.23): 0.98
- Reporter Activity (ERRα (GAL-ERRa); Table 4, dose 1 (unit not given), None 27.7/34.05): 27.3
- Fold Activation (ERE-TK-luc; E2 100 nM + DY 40 0.01 μM): 1.03
- Reporter Activity (ERE-TK-luc; E2 100 nM + DY 40 0.01 μM): 1.48
- Fold Activation (ERE-TK-luc; E2 100 nM + DY 40 0.03 μM): 0.85
- Reporter Activity (ERE-TK-luc; E2 100 nM + DY 40 0.03 μM): 1.22
- Fold Activation (ERE-TK-luc; E2 100 nM + DY 40 0.1 μM): 0.69
- Reporter Activity (ERE-TK-luc; E2 100 nM + DY 40 0.1 μM): 0.99
- Fold Activation (ERE-TK-luc; E2 100 nM + DY 40 0.3 μM): 0.47
- Reporter Activity (ERE-TK-luc; E2 100 nM + DY 40 0.3 μM): 0.67
- Fold Activation (ERE-TK-luc; [1]): 0.90
- Reporter Activity (ERE-TK-luc; [1]): 1.29
- Fold Activation (ERE-TK-luc; [2]): 0.81
- Reporter Activity (ERE-TK-luc; [2]): 1.17
- Fold Activation (ERRβ (GAL-L-ERRb); Table 4, DY40 dose head 0 (1st of 3), None 1.2): 1.33
- Reporter Activity (ERRβ (GAL-L-ERRb); Table 4, DY40 dose head 0 (1st of 3), None 8.67): 9.61
- Fold Activation (ERRβ (GAL-L-ERRb); Table 4, DY40 dose head 0 (2nd of 3), None 1.2): 0.92
- Reporter Activity (ERRβ (GAL-L-ERRb); Table 4, DY40 dose head 0 (2nd of 3), None 8.67): 6.61
- Fold Activation (ERRβ (GAL-L-ERRb); Table 4, DY40 dose head 0 (3rd of 3), None 1.2): 0.7
- Reporter Activity (ERRβ (GAL-L-ERRb); Table 4, DY40 dose head 0 (3rd of 3), None 8.67): 5.07
- Fold Activation (ERRβ (GAL-L-ERRb); Table 4, dose 0.1 (unit not given), None 1/1.2): 0.2
- Reporter Activity (ERRβ (GAL-L-ERRb); Table 4, dose 0.1 (unit not given), None 7.21/8.67): 1.4
- Fold Activation (ERRβ (GAL-L-ERRb); Table 4, dose 0.3 (unit not given), None 1/1.2): 0.1
- Reporter Activity (ERRβ (GAL-L-ERRb); Table 4, dose 0.3 (unit not given), None 7.21/8.67): 0.73
- Fold Activation (ERRβ (GAL-L-ERRb); Table 4, dose 1 (unit not given), None 1/1.2): 0.08
- Reporter Activity (ERRβ (GAL-L-ERRb); Table 4, dose 1 (unit not given), None 7.21/8.67): 0.59
- potency antagonizing ERRβ relative to 4-hydroxytamoxifen (ERRβ (GAL-L-ERRb); greater than 4-hydroxytamoxifen): about 30 fold
- inhibition of the activity of ERRβ (ERRβ (GAL-L-ERRb); result in words): inhibit the activity
- inhibition of the activity of ERRγ (ERRγ (GAL-ERRg)): inhibit the activity
- potency antagonizing ERRγ relative to 4-hydroxytamoxifen (ERRγ (GAL-ERRg)): about 30 fold
- Reporter Activity (ERα (ERa); E2 100 nM + DY 40 0.01 μM): 5.07
- Reporter Activity (ERα (ERa); E2 100 nM + DY 40 0.03 μM): 2.42
- Reporter Activity (ERα (ERa); E2 100 nM + DY 40 0.1 μM): 1.97
- Reporter Activity (ERα (ERa); E2 100 nM + DY 40 0.3 μM): 1.32
- Reporter Activity (ERα (ERa); [1]): 13.55
- Reporter Activity (ERα (ERa); [2]): 8.57

- Fold Activation (ERRα (GAL-ERRa); [3]): 1.03
- Reporter Activity (ERRα (GAL-ERRa); [4]): 8.46
- Fold Activation (ERRβ (GAL-L-ERRb); [3]): 0.86
- Reporter Activity (ERRβ (GAL-L-ERRb); [5]): 2.04
- Reporter Activity (MH100x4): 0.56
- Fold Activation (MH100x4): 0.98
- Fold Activation (ERRγ (GAL-ERRg)): 0.68
- Reporter Activity (ERRγ (GAL-ERRg)): 1.5
Structure (SMILES): Oc1ccc(C(=C(CCCl)c2ccccc2)c2ccc(O)cc2)cc1 [DY30]
- repression of ERRs (ERRs): does not repress ERRs

Structure (SMILES): CC(C)C(=C(c1ccc(O)cc1)c1ccc(O)cc1)c1ccccc1 [DY34, 1,1-Bis(4-hydroxyphenyl)-2-phenylbut-3-methyl-1-ene]
- Fold Activation (ERRα (GAL-ERRa); [3]): 1.01
- Reporter Activity (ERRα (GAL-ERRa); [4]): 8.24
- Fold Activation (ERRβ (GAL-L-ERRb); [3]): 0.48
- Reporter Activity (ERRβ (GAL-L-ERRb); [5]): 1.15
- Fold Activation (ERRγ (GAL-ERRg)): 0.61
- Reporter Activity (ERRγ (GAL-ERRg)): 1.35
- repression of ERRs (ERRs): does not repress ERRs

Structure (SMILES): CCCC(=C(c1ccc(O)cc1)c1ccc(O)cc1)c1ccccc1 [DY37]
- repression of ERRs (ERRs): does not repress ERRs

Structure (SMILES): CCC(=C(c1ccc(O)cc1)c1ccc(O)cc1)c1ccccc1 [DY25, 1,1-Bis(4-hydroxyphenyl)-2-phenylbut-1-ene]
- repression of ERRs (ERRs): does not repress ERRs

- Fold Activation (ERRα (GAL-ERRa); [3]): 1.06
- Reporter Activity (ERRα (GAL-ERRa); [4]): 8.71
- Fold Activation (ERRβ (GAL-L-ERRb); [3]): 0.74
- Reporter Activity (ERRβ (GAL-L-ERRb); [5]): 1.75
- Reporter Activity (MH100x4): 0.4
- Fold Activation (MH100x4): 0.7
- Fold Activation (ERRγ (GAL-ERRg)): 0.53
- Reporter Activity (ERRγ (GAL-ERRg)): 1.16
Structure (SMILES): Oc1ccc(C(=C(CCCCl)c2ccccc2)c2ccc(O)cc2)cc1 [DY31]
- repression of ERRs (ERRs): does not repress ERRs
